Where two headings read alike, the source gives them in different places.
B1: IFN-Lambda 2 (protein, UniProt Q8IZJ0 26-200, looked up)
Interferon lambda-2: VPVARLHGALPDARGCHIAQFKSLSPQELQAFKRAKDALEESLLLKDCRCHSRLFPRTWDLRQLQVRERPMALEAELALTLKVLEATADTDPALVDVLDQPLHTLHHILSQFRACIQPQPTAGPRTRGRLHHWLYRLQEAPKKESPGCLEASVTFNLFRLLTRDLNCVASGDLCV
B2: IFN-Lambda 3 (protein, UniProt Q8IZI9 22-196, looked up)
Interferon lambda-3: VPVARLRGALPDARGCHIAQFKSLSPQELQAFKRAKDALEESLLLKDCKCRSRLFPRTWDLRQLQVRERPVALEAELALTLKVLEATADTDPALGDVLDQPLHTLHHILSQLRACIQPQPTAGPRTRGRLHHWLHRLQEAPKKESPGCLEASVTFNLFRLLTRDLNCVASGDLCV
B3: IFN-Lambda 1 (protein, UniProt Q8IU54 20-200, looked up)
Interferon lambda-1: GPVPTSKPTTTGKGCHIGRFKSLSPQELASFKKARDALEESLKLKNWSCSSPVFPGNWDLRLLQVRERPVALEAELALTLKVLEAAAGPALEDVLDQPLHTLHHILSQLQACIQPQPTAGPRPRGRLHHWLHRLQEAPKKESAGCLEASVTFNLFRLLTRDLKYVADGNLCLRTSTHPEST

What was measured:
NS5B570-Con1 (Delta-21) = biological target: T1, NS5B570-Con1 (Delta-21) (Hepatitis C virus genotype 1b, UniProt Q9WMX2); experiment: NS5B inhibition assay; format: biochemical, HCV
T1 construct: NS5B570-Con1 (Delta-21)
Method: The enzyme activity of NS5B570-Con1 (Delta-21) was measured as an incorporation of tritiated NMP into acid-insoluble RNA products. The complementary IRES (cIRES) RNA sequence was used as a template, corresponding to 377 nucleotides from the 3′-end of HCV (−) strand RNA of the Con-1 strain, with a base content of 21% Ade, 23% Ura, 28% Cyt, and 28% Gua. The cIRES RNA was transcribed in vitro using a T7 transcription kit (Ambion, Inc.) and purified using the Qiagen RNeasy maxi kit. HCV polymerase reactions contained 50 nM NS5B570-Con1, 50 nM cIRES RNA, about 0.5 μCi tritiated NTP, 1 μM of competing cold NTP, 20 mM NaCl, 40 mM Tris-HCl (pH 8.0), 4 mM dithiothreitol, and 4 mM MgCl2. Standard reactions were incubated for 2 hours at 37° C., in the presence of increasing concentration of inhibitor. At the end of the reaction, RNA was precipitated with 10% TCA, and acid-insoluble RNA products were filtered on a size exclusion 96-well plate. After washing of the plate, scintillation liquid was added and radio labeled RNA products were detected according to standard procedures with a Trilux Topcount scintillation counter.

[1] = test system: HCV genotype 1b HCV replicon harbored in Huh7 cells; experiment: Combination testing in HCV replicon (CalcuSyn CI and MacSynergy II synergy volume); format: cell-based; settings: combination of compound 3b with the listed combination compound; MacSynergy II (Bliss independence); 72 h; 25-100 synergistic, >100 strongly synergistic
Method: Two or more test compounds were tested in combination with each other using an HCV genotype 1b HCV replicon harbored in Huh7 cells with a stable luciferase (LUC) reporter. Cells were cultured under standard conditions in Dulbecco's modified Eagle's medium (DMEM; Mediatech Inc, Herndon, Va.) containing 10% heat-inactivated fetal bovine serum (FBS; Mediatech Inc, Herndon, Va.) 2 mM L-glutamine, and nonessential amino acids (JRH Biosciences). HCV replicon cells were plated in a 96-well plate at a density of 10^4 cells per well in DMEM with 10% FBS. […] The cells were incubated with no compound as a control, with the test compounds, or the combination of compounds for 72 h. The direct effects of the combination of the test compounds were examined using a luciferase (LUC) based reporter as determined by the Bright-Glo Luciferase Assay (Promega, Madison, Wis.). Dose-response curves were determined for individual compounds and fixed ratio combinations of two or more test compounds.
The effects of test compound combinations were evaluated by two separate methods. In the Loewe additivity model, the experimental replicon data was analyzed by using CalcuSyn (Biosoft, Ferguson, Mo.), a computer program based on the method of Chou and Talalay. The program uses the experimental data to calculate a combination index (CI) value for each experimental combination tested. A CI value of <1 indicates a synergistic effect, a CI value of 1 indicates an additive effect, and a CI value of >1 indicates an antagonistic effect.
The second method utilized for evaluating combination effects used a program called MacSynergy II. MacSynergy II software was kindly provided by Dr. M. Prichard (University of Michigan). The Prichard Model allows for a three-dimensional examination of drug interactions and a calculation of the synergy volume (units: μM^2 %) generated from running the replicon assay using a checkerboard combination of two or more inhibitors. The volumes of synergy (positive volumes) or antagonism (negative volumes) represent the relative quantity of synergism or antagonism per change in the concentrations of the two drugs. Synergy and antagonism volumes are defined based on the Bliss independence model. In this model, synergy volumes of less than −25 indicate antagonistic interactions, volumes in the −25-25 range indicate additive behavior, volumes in the 25-100 range indicate synergistic behavior and volumes >100 indicate strong synergistic behavior.

[2] = IC50 value, incorporation of tritiated NMP into acid-insoluble RNA, 2 hours at 37° C.

Row | Molecule | Synergy Volume [1] [μM^2%] | further results
1 | C[C@@]1(F)[C@H](O)[C@@H](COP(O)(=S)OP(=O)(O)OP(=O)(O)O)O[C@H]1n1cnc2c(=O)[nH]c(N)nc21 (single isomer, unassigned) [Compound 5f] | – | IC50 (NS5B570-Con1 (Delta-21); read-out: IC50 value, incorporation of tritiated NMP into acid-insoluble RNA, 2 hours at 37° C.): < 1 µM
2 | C[C@@]1(F)[C@H](O)[C@@H](COP(O)(=S)OP(=O)(O)OP(=O)(O)O)O[C@H]1n1cnc2c(=O)[nH]c(N)nc21 (single isomer, unassigned) [Compound 5e] | – | IC50 (NS5B570-Con1 (Delta-21); [2]): < 1 µM
3 | C[C@@]1(O)[C@H](O)[C@@H](COP(O)(=S)OP(=O)(O)OP(=O)(O)O)O[C@H]1n1cnc2c(=O)[nH]c(N)nc21 (single isomer, unassigned) [Compound 5h] | – | IC50 (NS5B570-Con1 (Delta-21); [2]): 1 to 10 µM
4 | NC(=O)c1ncn([C@@H]2O[C@H](CO)[C@@H](O)[C@H]2O)n1 [Ribavirin, ribavirin] | 22 | –
5 | CCOc1nc(N)nc2c1ncn2[C@@H]1O[C@@H]2COP(=O)(OC(C)C)O[C@H]2[C@@]1(C)F (stereo partly shown) [PSI-938] | 27 | –
6 | CCC[C@H](NC(=O)[C@@H]1[C@H]2CCC[C@H]2CN1C(=O)[C@@H](NC(=O)[C@@H](NC(=O)c1cnccn1)C1CCCCC1)C(C)(C)C)C(=O)C(=O)NC1CC1 [VX-950, Telaprevir] | 76 | –
7 | CCc1cc(CC[C@]2(C3CCCC3)CC(O)=C(Cc3nc4nc(C)cc(C)n4n3)C(=O)O2)cc(CC)n1 [Filibuvir] | 23 | –
8 | Fc1ccccc1-c1nc2ccn(Cc3ccc(-c4ccc(C(F)(F)F)cc4C(F)(F)F)nn3)cc-2n1 [GS-9190] | 79 | –
9 | COc1nc(N)nc2c1ncn2[C@@H]1O[C@H](COP(=O)(N[C@@H](C)C(=O)OCC(C)(C)C)Oc2cccc3ccccc23)[C@@H](O)[C@@]1(C)O (stereo partly shown) [INX-189] | 65 | –
10 | C[C@@]1(O)[C@H](O)[C@@H](COP(O)(=S)OP(=O)(O)OP(=O)(O)O)O[C@H]1n1ccc(=O)[nH]c1=O (single isomer, unassigned) [Compound 5b] | – | IC50 (NS5B570-Con1 (Delta-21); [2]): < 1 µM
11 | COC(=O)N[C@H](C(=O)N1CCC[C@H]1c1nc(-c2ccc(-c3ccc(-c4c[nH]c([C@@H]5CCCN5C(=O)[C@@H](NC(=O)OC)C(C)C)n4)cc3)cc2)c[nH]1)C(C)C [BMS-790052] | 26 | –
12 | CNC(=O)c1c(-c2ccc(F)cc2)oc2cc(N(CCO)S(C)(=O)=O)c(C3CC3)cc12 [HCV-796] | 31 | –
13 | C[C@@]1(F)[C@H](O)[C@@H](COP(O)(=S)OP(=O)(O)OP(=O)(O)O)O[C@H]1n1ccc(=O)[nH]c1=O (single isomer, unassigned) [Compound 5d] | – | IC50 (NS5B570-Con1 (Delta-21); [2]): 10 to 100 µM
14 | COc1ccc2c(O[C@@H]3C[C@H]4C(=O)N[C@]5(C(=O)NS(=O)(=O)C6CC6)C[C@H]5/C=C\CCCCN(C)C(=O)[C@@H]4C3)cc(-c3nc(C(C)C)cs3)nc2c1C [TMC-435] | 126 | –
15 | CC(C)(C)C#Cc1cc(N(C(=O)[C@H]2CC[C@H](C)CC2)[C@H]2CC[C@H](O)CC2)c(C(=O)O)s1 [VX-222] | 38 | –
16 | CC(C)OC(=O)[C@H](C)NP(=O)(OC[C@H]1O[C@@H](n2ccc(=O)[nH]c2=O)[C@](C)(F)[C@@H]1O)Oc1ccccc1 (stereo partly shown) [PSI-7851] | 0 | –
17 | C[C@@]1(O)[C@H](O)[C@@H](COP(O)(=S)OP(=O)(O)OP(=O)(O)O)O[C@H]1n1ccc(=O)[nH]c1=O (single isomer, unassigned) [Compound 5a] | – | IC50 (NS5B570-Con1 (Delta-21); [2]): 10 to 100 µM
18 | COc1ccc2c(O[C@@H]3C[C@H]4C(=O)N[C@]5(C(=O)O)C[C@H]5/C=C\CCCCC[C@H](NC(=O)OC5CCCC5)C(=O)N4C3)cc(-c3csc(NC(C)C)n3)nc2c1 [BILN-2061] | 31 | –
19 | C[C@@]1(O)[C@H](O)[C@@H](COP(O)(=S)OP(=O)(O)OP(=O)(O)O)O[C@H]1n1cnc2c(=O)[nH]c(N)nc21 (single isomer, unassigned) [Compound 5g] | – | IC50 (NS5B570-Con1 (Delta-21); [2]): < 1 µM
20 | CC(C)(C)OC(=O)N[C@H]1CCCCC/C=C\[C@@H]2C[C@@]2(C(=O)NS(=O)(=O)C2CC2)NC(=O)[C@@H]2C[C@@H](OC(=O)N3Cc4cccc(F)c4C3)CN2C1=O [ITMN-191] | 126 | –
21 | C[C@@]1(F)[C@H](O)[C@@H](COP(O)(=S)OP(=O)(O)OP(=O)(O)O)O[C@H]1n1ccc(=O)[nH]c1=O (single isomer, unassigned) [Compound 5c] | – | IC50 (NS5B570-Con1 (Delta-21); [2]): 1 to 10 µM
22 | C[C@@]1(F)[C@H](O)[C@@H](CO)O[C@H]1n1ccc(N)nc1=O [PSI-6130] | 15 | –
23 | B1 | 34 | –
24 | B2 | 35 | –
25 | B3 | 116 | –

— US9278990B2, “Substituted nucleotide analogs” (priority 2010, dated 2016)
